# Source: paper PMC6606765, “Stargazin and γ4 slow the channel opening and closing rates of GluA4 AMPA receptors” (Scientific Reports, 2019)
# Several values for one entry are separate records, joined by “and”; a condition that tells them apart may be missing. Equal values may be shown once.
# Tests used:
# GluA4 homomeric channels [1] = target: T1, GluA4 homomeric channels (Rattus norvegicus, UniProt P19493); parameters: method as in PMID 15823042; settings: GluA4 alone; cited from earlier work
# T1 construct: expressed in transfected cells; host or cells: HEK-293S
# T1 sequence (P19493 21-902 isoform P19493-2 limits assumed): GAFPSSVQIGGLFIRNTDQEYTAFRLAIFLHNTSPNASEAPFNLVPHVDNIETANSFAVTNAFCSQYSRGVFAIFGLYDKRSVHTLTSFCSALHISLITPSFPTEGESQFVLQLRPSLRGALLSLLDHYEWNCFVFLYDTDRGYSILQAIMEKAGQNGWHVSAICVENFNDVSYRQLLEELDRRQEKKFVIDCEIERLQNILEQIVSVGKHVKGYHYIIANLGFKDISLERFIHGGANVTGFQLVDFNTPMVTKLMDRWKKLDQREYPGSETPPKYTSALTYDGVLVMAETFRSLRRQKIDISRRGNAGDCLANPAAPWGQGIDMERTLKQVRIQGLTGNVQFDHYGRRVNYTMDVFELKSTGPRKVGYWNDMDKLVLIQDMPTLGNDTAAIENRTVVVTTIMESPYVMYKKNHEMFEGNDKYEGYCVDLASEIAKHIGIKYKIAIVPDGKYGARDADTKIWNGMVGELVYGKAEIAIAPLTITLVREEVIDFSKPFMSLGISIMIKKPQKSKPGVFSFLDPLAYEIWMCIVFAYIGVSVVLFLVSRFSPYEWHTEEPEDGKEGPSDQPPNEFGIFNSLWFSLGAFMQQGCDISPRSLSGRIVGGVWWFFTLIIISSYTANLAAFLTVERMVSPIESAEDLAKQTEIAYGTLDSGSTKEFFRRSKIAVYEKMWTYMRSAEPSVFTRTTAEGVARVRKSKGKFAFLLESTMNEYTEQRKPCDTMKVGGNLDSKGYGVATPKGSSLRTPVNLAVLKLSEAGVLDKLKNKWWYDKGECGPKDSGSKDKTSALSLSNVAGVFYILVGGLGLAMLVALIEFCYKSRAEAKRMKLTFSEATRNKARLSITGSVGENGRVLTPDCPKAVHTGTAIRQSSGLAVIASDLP
# GluA4/γ2 [2] = target: T2, GluA4/γ2 (Rattus norvegicus, UniProt P19493); test: Laser-pulse photolysis of caged glutamate with whole-cell current recording (channel-opening kinetics); assay type: cell-based
# T2 construct: expressed in transfected cells; host or cells: HEK-293S
# T2 sequence (P19493 21-902 isoform P19493-2 limits assumed): as above
# Experimental: (§1) The γ-2 and γ-4 plasmids were generously provided by Prof. Susumu Tomita. The flip isoform of GluA4[30] with and without a TARP was transiently expressed in HEK-293S cell. The tissue culture and transfection procedure were described before. In brief, HEK-293S cells were cultured in Dulbecco’s modified Eagle’s medium supplemented with 10% fetal bovine serum, 100 U/mL penicillin, and 100 μg/mL streptomycin in a 37 °C, 6% CO2, humidified incubator. In co-transfecting a TARP, we used 1:1 and 1:2 weight ratio of the plasmid of GluA4 to a TARP (GluA4 plasmid was 3–6 μg/35 mm dish). Co-transfection also included green fluorescent protein (GFP) and large T-antigen (TAg)[46]. We also added a 2,3-benzodiazepine inhibitor[47] after transfection to prevent cell toxicity due to transfection of TARP. Transfected cells were grown for >48 h before recording.
# (§2) Briefly, the pipet solution or internal solution contained (in mM) 110 CsF, 30 CsCl, 4 NaCl, 0.5 CaCl2, 5 EGTA, and 10 HEPES (pH 7.4 adjusted by NaOH). The external cellular solution or bath solution contained (in mM) 150 NaCl, 3 KCl, 1 CaCl2, 1 MgCl2, and 10 HEPES (pH 7.4 adjusted by NaOH)[46]. The GFP fluorescence in transfected cells was visualized on an Axiovert S100 microscope with a fluorescent detection system from Carl Zeiss. The whole-cell current was recorded using an Axopatch-200B amplifier at a cutoff frequency of 2–20 kHz by a built-in, four-pole Bessel filter and digitized at 5–50 kHz sampling frequency using an Axon Digidata 1322 A. Unless otherwise noted, all experiments were performed with transfected HEK-293S cells voltage-clamped at −60 mV and at 22 °C.
# (§3) The laser-pulse photolysis technique was used to measure the channel-opening kinetic constants of an AMPA receptor, as we previously reported. […] A Minilite II pulsed Q-switched Nd:YAG laser (Continuum, Santa Clara, CA) delivered single pulses at 355 nm with a pulse length of 8 ns.
# (§4) The kop and kcl values were determined from the rising phase of a whole-cell current trace in a laser-pulse photolysis experiment. […] The observed first-order rate constant of channel opening, kobs, was estimated by using Eq. 22 It=Imax(1−e^−kobst) where It and Imax represent the whole-cell current amplitude at time t, and the maximum current amplitude, respectively. Based on the general mechanism of channel opening, Eq. 3 was derived to describe the relationship between kobs and ligand concentration:3 kobs=kcl+kop(L/L+K1)^n
# (§5) In deriving Eq. 3, we assumed the rate of ligand binding was fast relative to the rate of channel opening.
# GluA4 homomeric channels [3] = target: T1, GluA4 homomeric channels; test: as above; assay type: cell-based; settings: linear fit of kobs vs glutamate concentration, Eq. 3, ±SEM
# Experimental: as §1, §2, §3, §4, §5
# GluA4/γ4 [4] = target: T3, GluA4/γ4 (Rattus norvegicus, UniProt P19493); test: as above; assay type: cell-based
# T3 construct: expressed in transfected cells; host or cells: HEK-293S
# T3 sequence (P19493 21-902 isoform P19493-2 limits assumed): as above
# Experimental: as §1, §2, §3, §4, §5
# GluA4/γ2 [5] = target: T2, GluA4/γ2; test: Whole-cell current recording with fast solution flow (dose-response, desensitization) in transfected HEK-293 cells; assay type: cell-based
# Experimental: as §1, §2, §3
# (§6) Based on this general, minimal mechanism of channel opening, Eq. 1 was derived. In Eq. 1, IA is the observed amplitude of macroscopic current amplitude, IM is the current per mole of receptor, RM the number of moles of receptors on the cell surface, and Φ^−1 the channel opening equilibrium constant. A non-linear regression was performed to determine K1, along with other parameters, from a dose-response relationship. Each of the current traces was corrected for desensitization before it was used in calculating dose-response relationship[48].1 IA=IMRML^n/L^n+Φ(L+K1)^n
# GluA4 homomeric channels [6] = target: T1, GluA4 homomeric channels; test: as above; assay type: cell-based
# Experimental: as §1, §2, §3, §6
# GluA4/γ4 [7] = target: T3, GluA4/γ4; test: as above; assay type: cell-based
# Experimental: as §1, §2, §3, §6
# [8] = Table S2A nonlinear fitting, kcl fixed 1000 s-1
# [9] = Table S2A nonlinear fitting, kcl fixed 1200 s-1
# [10] = Table S2A nonlinear fitting, kcl fixed 1400 s-1
# [11] = linear fit of kobs vs glutamate concentration, Eq. 3, ±SEM
# [12] = Table S3A nonlinear fitting, kcl fixed 900 s-1
# [13] = Table S3A nonlinear fitting, kcl fixed 1100 s-1
# [14] = Table S3A nonlinear fitting, kcl fixed 1300 s-1
# [15] = best fit of dose-response with Eq. 1
# [16] = mean ±SD, saturated whole-cell responses evoked by 10 and 20 mM glutamate, HEK-293S, −60 mV, 22 °C
compound,measurement,setting,value
N[C@@H](CCC(=O)O)C(=O)O [glutamate],Popen (channel-opening probability),GluA4 homomeric channels [1],0.96
same,Popen (channel-opening probability),GluA4/γ2 [2]; Popen = kop/(kop + kcl),~ 0.93
same,"kop, final output Ave.",GluA4/γ2 [2]; [8],17591 s⁻¹
same,"n, final output Ave.",GluA4/γ2 [2]; [8],1.59
same,"kop, final output Ave.",GluA4/γ2 [2]; [9],19225 s⁻¹
same,"n, final output Ave.",GluA4/γ2 [2]; [9],1.88
same,"kop, final output Ave.",GluA4/γ2 [2]; [10],22936 s⁻¹
same,"n, final output Ave.",GluA4/γ2 [2]; [10],2.11
same,"kop, final output Ave.","GluA4/γ2 [2]; Table S2B nonlinear fitting, n fixed 2, kcl fixed 1000 s-1",15488 s⁻¹
same,"kop, final output Ave.","GluA4/γ2 [2]; Table S2B nonlinear fitting, n fixed 2, kcl fixed 1200 s-1",15607 s⁻¹
same,"kop, final output Ave.","GluA4/γ2 [2]; Table S2B nonlinear fitting, n fixed 2, kcl fixed 1400 s-1",18961 s⁻¹
same,kcl (channel-closing rate constant),GluA4/γ2 [2]; [11],1.2 ± 0.1 x 10^3 s^−1 and 1.17 ± 0.11 x 10^3 s^−1
same,kop (channel-opening rate constant),GluA4/γ2 [2]; [11],1.3 ± 0.1 x10^4 s^−1 and 1.32 ± 0.12 x10^4 s^−1
same,kcl (channel-closing rate constant),GluA4 homomeric channels [3],3.4 ± 0.1 x 10^3 s^−1 and 3.39 ± 0.11 x 10^3 s^−1
same,kop (channel-opening rate constant),GluA4 homomeric channels [3],6.4 ± 0.4 x10^4 s^−1 and 6.41 ± 0.44 x10^4 s^−1
same,Popen (channel-opening probability),GluA4/γ4 [4]; Popen = kop/(kop + kcl),~ 0.93
same,"kop, final output Ave.",GluA4/γ4 [4]; [12],16862 s⁻¹
same,"n, final output Ave.",GluA4/γ4 [4]; [12],1.99
same,"kop, final output Ave.",GluA4/γ4 [4]; [13],16375 s⁻¹
same,"n, final output Ave.",GluA4/γ4 [4]; [13],2.20
same,"kop, final output Ave.",GluA4/γ4 [4]; [14],15640 s⁻¹
same,"n, final output Ave.",GluA4/γ4 [4]; [14],2.41
same,"kop, final output Ave.","GluA4/γ4 [4]; Table S3B nonlinear fitting, n fixed 2, kcl fixed 900 s-1",15152 s⁻¹
same,"kop, final output Ave.","GluA4/γ4 [4]; Table S3B nonlinear fitting, n fixed 2, kcl fixed 1100 s-1",13642 s⁻¹
same,"kop, final output Ave.","GluA4/γ4 [4]; Table S3B nonlinear fitting, n fixed 2, kcl fixed 1300 s-1",11557 s⁻¹
same,kcl (channel-closing rate constant),GluA4/γ4 [4]; [11],1.1 ± 0.1 x 10^3 s^−1 and 1.08 ± 0.05 x 10^3 s^−1
same,kop (channel-opening rate constant),GluA4/γ4 [4]; [11],1.7 ± 0.2 x10^4 s^−1 and 1.70 ± 0.15 x10^4 s^−1
same,Φ (Φ^−1 = channel opening equilibrium constant),GluA4/γ2 [5]; [15],0.41 ± 0.95
same,Hill Coefficient,GluA4/γ2 [5]; dose-response curve,1.07 ± 0.14
same,kdes (maximum desensitization rate constant),GluA4/γ2 [5]; [16],135 ± 11 s⁻¹
same,Φ (Φ^−1 = channel opening equilibrium constant),GluA4 homomeric channels [6]; [15],0.36 ± 0.88
same,Hill Coefficient,GluA4 homomeric channels [6]; dose-response curve,2.18 ± 0.21
same,kdes (maximum desensitization rate constant),GluA4 homomeric channels [6]; [16],181 ± 7 s⁻¹
same,Φ (Φ^−1 = channel opening equilibrium constant),GluA4/γ4 [7]; [15],0.39 ± 1.36
same,Hill Coefficient,GluA4/γ4 [7]; dose-response curve,1.08 ± 0.10
same,kdes (maximum desensitization rate constant),GluA4/γ4 [7]; [16],90 ± 12 s⁻¹
